Laboratory results: patent US20240409585A1, “MACROCYCLIC IMMUNOMODULATORS” (priority 2021, published 2024)
Bridge positions count the residues as written; N and C are the ends. Square brackets hold non-standard residues; d marks the D form. Peptide text beside a SMILES is read from it. * marks the point of attachment. ξ: configuration not given here. Phe(4-(3-Py)) = N[C@@H](Cc1ccc(-c2cccnc2)cc1)C(=O)O; Phe(4-CH2NH2) = NCc1ccc(C[C@H](N)C(=O)O)cc1; Bip = N[C@@H](Cc1ccc(-c2ccccc2)cc1)C(=O)O; Phe(4-CN) = N#Cc1ccc(C[C@H](N)C(=O)O)cc1; Phe(3-F) = N[C@@H](Cc1cccc(F)c1)C(=O)O; Phe(3-Me) = Cc1cccc(C[C@H](N)C(=O)O)c1; Val(3-OH) = CC(C)(O)[C@H](N)C(=O)O; 4Pal = N[C@@H](Cc1ccncc1)C(=O)O; 2Thi = N[C@@H](Cc1cccs1)C(=O)O; Cha = N[C@@H](CC1CCCCC1)C(=O)O; Cit = NC(=O)NCCC[C@H](N)C(=O)O; Thr(3ξ) = CC(O)[C@H](N)C(=O)O; Carboxymethyl = O=C(O)C*; NMeA = CN[C@@H](C)C(=O)O; Nle = CCCC[C@H](N)C(=O)O; Dab = NCC[C@H](N)C(=O)O; Dap = NC[C@H](N)C(=O)O

These compounds were tested against T1, PE-labeled human PD-L1-Ig binding to Jurkat cell line over-expressing human PD-1 (Jurkat-PD-1) (Homo sapiens, UniProt Q15116) (assay: Jurkat-PD-1 Cell Binding High-Content Screening Assay (CBA): Method 1). Conditions: Jurkat-hPD-1 cells, PE-labeled PD-L1-Ig 20 nM final; read-out: Jurkat HPDL1 PD1 IC50 (uM) (Method 1).
T1 construct: expressed in transfected cells; host or cells: Jurkat
T1 sequence (Q15116 25-288): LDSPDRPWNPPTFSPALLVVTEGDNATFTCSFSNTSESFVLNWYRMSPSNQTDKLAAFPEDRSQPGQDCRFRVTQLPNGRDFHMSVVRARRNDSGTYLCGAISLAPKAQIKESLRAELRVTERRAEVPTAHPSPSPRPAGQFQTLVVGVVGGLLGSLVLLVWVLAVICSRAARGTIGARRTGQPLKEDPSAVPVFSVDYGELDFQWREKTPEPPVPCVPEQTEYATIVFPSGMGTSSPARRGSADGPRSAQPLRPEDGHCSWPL

IC50 | SMILES
0.16 µM | CC[C@H](C)[C@@H]1NC(=O)[C@H](CC(C)C)NC(=O)[C@H](CCCNC(=N)N)NC(=O)[C@@H](CC(C)C)NC(=O)[C@H](C)N(C)C(=O)[C@H](CCCNC(=N)N)NC(=O)[C@H](Cc2ccc(-c3ccccc3)cc2)NC(=O)[C@H](C(C)C)NC(=O)[C@H](Cc2c[nH]c3ccccc23)NC(=O)[C@H](CC(=O)O)NC(=O)[C@H](Cc2ccc(O)cc2)NC(=O)[C@H](Cc2ccccc2)NC(=O)CSC[C@@H](C(=O)N[C@@H](C)C(N)=O)NC(=O)[C@H]([C@@H](C)O)NC1=O [Compound 1118] ({CH2CO}-FYDWV[Bip]R[NMeA][dL]RLITCA-NH2; thioether N-14)
0.01 µM | Cc1cccc(C[C@@H]2NC(=O)[C@H](CC(=O)O)NC(=O)[C@H](Cc3ccc(OCC(=O)O)cc3)NC(=O)[C@H](Cc3cccs3)NC(=O)CSC[C@@H](C(=O)N[C@@H](CN)C(N)=O)NC(=O)[C@H](C(C)O)NC(=O)[C@H](C(C)(C)O)NC(=O)[C@H](CC3CCCCC3)NC(=O)[C@H](CCN)NC(=O)[C@@H](CC(C)C)NC(=O)[C@H](C)N(C)C(=O)[C@H](CCCNC(N)=O)NC(=O)[C@H](Cc3ccc(-c4ccccc4)cc3)NC(=O)[C@H](Cc3ccc(OCC(=O)O)cc3)NC2=O)c1 (stereo partly drawn) [Compound 2169] ({CH2CO}-[2Thi]Y(Carboxymethyl)D[Phe(3-Me)]Y(Carboxymethyl)[Bip][Cit][NMeA][dL][Dab][Cha][Val(3-OH)][Thr(3ξ)]C[Dap]-NH2; thioether N-14)
0.07 µM | CCCC[C@@H]1NC(=O)[C@H](CCCNC(=N)N)NC(=O)[C@@H](CC(C)C)NC(=O)[C@H](C)N(C)C(=O)[C@H](C(C)C)NC(=O)[C@H](Cc2ccc(-c3ccccc3)cc2)NC(=O)[C@H](C(C)C)NC(=O)[C@H](Cc2c[nH]c3ccccc23)NC(=O)[C@H](CC(=O)O)NC(=O)[C@H](Cc2ccc(O)cc2)NC(=O)[C@H](CC(N)=O)NC(=O)CSC[C@@H](C(=O)N[C@@H](C)C(N)=O)NC(=O)[C@H]([C@@H](C)O)NC(=O)[C@H](C(C)C)NC1=O [Compound 1293] ({CH2CO}-NYDWV[Bip]V[NMeA][dL]R[Nle]VTCA-NH2; thioether N-14)
0.03 µM | CC(C)C[C@H]1NC(=O)[C@H](C)N(C)C(=O)[C@H](Cc2ccc(CN)cc2)NC(=O)[C@H](Cc2ccc(-c3ccccc3)cc2)NC(=O)[C@H](C(C)C)NC(=O)[C@H](Cc2c[nH]c3ccccc23)NC(=O)[C@H](CC(=O)O)NC(=O)[C@H](Cc2ccc(O)cc2)NC(=O)[C@H](Cc2ccncc2)NC(=O)CSC[C@@H](C(=O)N[C@@H](C)C(N)=O)NC(=O)[C@H](C(C)O)NC(=O)[C@H](C(C)C)NC(=O)[C@H](CC2CCCCC2)NC(=O)[C@H](CC(N)=O)NC1=O (stereo partly drawn) [Compound 2048] ({CH2CO}-[4Pal]YDWV[Bip][Phe(4-CH2NH2)][NMeA][dL]N[Cha]V[Thr(3ξ)]CA-NH2; thioether N-14)
0.29 µM | CC(C)C[C@@H]1NC(=O)[C@H](CCCNC(=N)N)NC(=O)[C@@H](CC(C)C)NC(=O)[C@H](C)N(C)C(=O)[C@H](CCCNC(=N)N)NC(=O)[C@H](Cc2ccc(-c3cccnc3)cc2)NC(=O)[C@H](C(C)C)NC(=O)[C@H](Cc2c[nH]c3ccccc23)NC(=O)[C@H](CC(=O)O)NC(=O)[C@H](Cc2ccc(O)cc2)NC(=O)[C@H](Cc2ccccc2)NC(=O)CSC[C@@H](C(=O)N[C@@H](C)C(N)=O)NC(=O)[C@H]([C@@H](C)O)NC(=O)[C@H](C(C)C)NC1=O [Compound 1096] ({CH2CO}-FYDWV[Phe(4-(3-Py))]R[NMeA][dL]RLVTCA-NH2; thioether N-14)
0.02 µM | CCCC[C@@H]1NC(=O)[C@H](CCN)NC(=O)[C@@H](CC(C)C)NC(=O)[C@H](C)N(C)C(=O)[C@H](C(C)C)NC(=O)[C@H](Cc2ccc(-c3ccccc3)cc2)NC(=O)[C@H](C(C)C)NC(=O)[C@H](Cc2c[nH]c3ccccc23)NC(=O)[C@H](CC(=O)O)NC(=O)[C@H](Cc2ccc(O)cc2)NC(=O)[C@H](CC(N)=O)NC(=O)CSC[C@@H](C(=O)N[C@@H](C)C(N)=O)NC(=O)[C@H]([C@@H](C)O)NC(=O)[C@H](C(C)C)NC1=O [Compound 1295] ({CH2CO}-NYDWV[Bip]V[NMeA][dL][Dab][Nle]VTCA-NH2; thioether N-14)
0.08 µM | CC(C)C[C@@H]1NC(=O)[C@H](CCCCN)NC(=O)[C@@H](CC(C)C)NC(=O)[C@H](C)N(C)C(=O)[C@H](CCCNC(N)=O)NC(=O)[C@H](Cc2ccc(-c3ccccc3)cc2)NC(=O)[C@H](C(C)C)NC(=O)[C@H](Cc2c[nH]c3ccccc23)NC(=O)[C@H](CC(=O)O)NC(=O)[C@H](Cc2ccc(O)cc2)NC(=O)[C@H](CC(N)=O)NC(=O)CSC[C@@H](C(=O)NCC(N)=O)NC(=O)[C@H](CO)NC(=O)[C@H](C(C)C)NC1=O [Compound 1474] ({CH2CO}-NYDWV[Bip][Cit][NMeA][dL]KLVSCG-NH2; thioether N-14)
0.03 µM | CC(C)C[C@@H]1NC(=O)[C@H](Cc2c[nH]c3ccccc23)NC(=O)[C@H](CC(=O)O)NC(=O)[C@H](Cc2ccc(C#N)cc2)NC(=O)[C@H](Cc2ccccc2)NC(=O)CSC[C@@H](C(=O)NCC(N)=O)NC(=O)[C@H](CO)NC(=O)[C@H](C(C)C)NC(=O)[C@H](CC(C)C)NC(=O)[C@H](CC(N)=O)NC(=O)[C@@H](CC(C)C)NC(=O)[C@H](C)N(C)C(=O)[C@H](C(C)C)NC(=O)[C@H](Cc2ccc(-c3ccccc3)cc2)NC1=O [Compound 1525] ({CH2CO}-F[Phe(4-CN)]DWL[Bip]V[NMeA][dL]NLVSCG-NH2; thioether N-14)
0.09 µM | CC(C)C[C@@H]1NC(=O)[C@H](CCN)NC(=O)[C@@H](CC(C)C)NC(=O)[C@H](C)N(C)C(=O)[C@H](CCCNC(=N)N)NC(=O)[C@H](Cc2ccc(-c3ccccc3)cc2)NC(=O)[C@H](C(C)C)NC(=O)[C@H](Cc2c[nH]c3ccccc23)NC(=O)[C@H](CC(=O)O)NC(=O)[C@H](Cc2cccc(F)c2)NC(=O)[C@H](CC(N)=O)NC(=O)CSC[C@@H](C(=O)N[C@@H](C)C(N)=O)NC(=O)[C@H]([C@@H](C)O)NC(=O)[C@H](C(C)C)NC1=O [Compound 1309] ({CH2CO}-N[Phe(3-F)]DWV[Bip]R[NMeA][dL][Dab]LVTCA-NH2; thioether N-14)
0.62 µM | CC(C)C[C@H]1NC(=O)[C@H](C)N(C)C(=O)[C@H](C(C)C)NC(=O)[C@H](Cc2ccc(-c3ccccc3)cc2)NC(=O)[C@H](C(C)C)NC(=O)[C@H](Cc2c[nH]c3ccccc23)NC(=O)[C@H](CC(=O)O)NC(=O)[C@H](Cc2ccc(O)cc2)NC(=O)[C@H](Cc2ccc(OCC(=O)O)cc2)NC(=O)CSC[C@@H](C(=O)N[C@@H](C)C(N)=O)NC(=O)[C@H]([C@@H](C)O)NC(=O)[C@H](C(C)C)NC(=O)[C@H](CC2CCCCC2)NC(=O)[C@H](CCCNC(=N)N)NC1=O [Compound 1486] ({CH2CO}-Y(Carboxymethyl)YDWV[Bip]V[NMeA][dL]R[Cha]VTCA-NH2; thioether N-14)
0.02 µM | CC(C)C[C@@H]1NC(=O)[C@H](Cc2c[nH]c3ccccc23)NC(=O)[C@H](CC(=O)O)NC(=O)[C@H](Cc2ccc(O)cc2)NC(=O)[C@H](Cc2ccccc2)NC(=O)CSC[C@@H](C(=O)NCC(N)=O)NC(=O)[C@H](CO)NC(=O)[C@H](C(C)C)NC(=O)[C@H](CC(C)C)NC(=O)[C@H](CCN)NC(=O)[C@@H](CC(C)C)NC(=O)[C@H](C)N(C)C(=O)[C@H](CCC(=O)O)NC(=O)[C@H](Cc2ccc(-c3ccccc3)cc2)NC1=O [Compound 1513] ({CH2CO}-FYDWL[Bip]E[NMeA][dL][Dab]LVSCG-NH2; thioether N-14)
